In data set [1] the test system is Humanized N901 (Anti-CD56 IgG1). Nature of the data set: Antibody disulfide reduction by damaged CHO cell supernatant (freeze-thaw), thiol per antibody by Ellman's assay. It counts as biochemical. As to conditions: for thiol per antibody: about 1.5 hours, control 6.4; for thiol per antibody / protection toward antibody-disulfide reduction: total thiol 0.8 mM; for protection toward antibody-disulfide reduction: 0.2 and 0.1 mM agent; for thiol/antibody ratio: about 2.5 hours, total thiol 0.4 mM, control 1.99. How it is done:
(§1) For all of the examples described below, cell damage was simulated by multiple freeze-thaw cycles of cells, by addition of RIPA buffer (50 mM Tris-HCl, pH 7.4, 1% NP-40, 0.5% sodium deoxycholate, 0.1% sodium dodecylsulfate), or by using microfluidizer. This damaged cell supernatant or lysate was then incubated with a buffered solution containing antibody with or without the anti-reduction agent being tested, following which the extent of the antibody-disulfide reduction was measured using Ellman's assay for thiol (P. W. Riddles, R. L. Blakeley, and B. Zerner, Methods Enzymol., 91, 49-60, 1983) or by non-reducing SDS protein LabChip analysis. The total thiol level present in the mixture of damaged cell supernatant/lysate was measured initially.
(§2) A simulated, damaged CHO cell suspension was prepared using 300 million CHO cells per ml phosphate buffered saline (PBS), which was subjected to three freeze-thaw cycles under vacuum, followed by pelleting of cell debris by centrifugation, and storage of the supernatant at −80° C.
Humanized N901 (Anti-CD56 IgG1; 1 mg) was immobilized on 0.05 ml of Protein A bead (RepliGen) and then treated with pre-mixed 0.4 ml PBS and 0.1 ml damaged CHO cell supernatant (described in Example 1) with or without the addition of coenzyme Q analogs. The concentration of thiol in these mixtures was 0.8 mM.
The samples were rotated for about 1.5 hours at ambient temperature, following which the supernatant was removed and the beads washed with PBS three times. The thiol content of the immobilized antibody on the beads was then analyzed by the addition of 0.6 ml of mixture of PBS and 0.5 mM DTNB, rotation for about 10 minutes, centrifugation, and measurement of the absorbance of the supernatant at 412 nm. The number of thiol residues per antibody molecule after incubation with damaged CHO cell supernatant (without any coenzyme Q analog) was measured as 6.4 thiol/antibody.
Humanized N901 IgG1 (1 mg) was immobilized on 0.05 ml of Protein A bead (RepliGen) and treated with pre-mixed 0.45 ml PBS and 0.05 ml damaged CHO cell supernatant with or without 0.1 mM and 0.2 mM disulfiram (also named as tetraethylthiuram disulfide; added using a stock solution of disulfiram in DMSO). The concentration of total thiol (derived from damaged cells) in this mixture was 0.4 mM.
The samples were rotated for about 2.5 hours at ambient temperature, then centrifuged to pellet beads, following which the supernatants were removed and the beads washed with PBS four times. The thiol content of the immobilized antibody on the beads was then analyzed by the addition of 0.6 ml PBS containing 0.5 mM DTNB to the beads, rotation for about 30 minutes, centrifugation, and measurement of the absorbance of the supernatant at 412 nm.

Another data set relates to M9346A antibody. The class given is biochemical. Conditions: 1 mM additive, conditions where control without additive was 100% fragmented. How it is done:
Antibody reduction was induced in a biological assay by adding cell lysate to purified monoclonal antibody. […]. Increasing amounts of CHO cell lysate were added to mimic different percentages of cell lysis, ranging from […]. Fresh NADPH was added to a concentration of 400 μM. The mixtures were incubated in a water bath at 37° C. for 1 h. Free thiols were alkylated by addition of 10% (v/v) of 50 mM N-ethyl-maleimide (NEM) solution. Samples were analyzed by non-reduced sodium dodecyl sulfate denaturing capillary electrophoresis (NR-CE-SDS).
To test the capacity for protection further, the stringency of the assay was increased. […].

A further data set relates to CHO cells. Description: Viability of CHO cells after 1 day treatment. As to conditions: 0.75 mM, control 98.9%.
Data set [2] concerns Humanized anti-folate receptor 1 (FOLR1) IgG1. Description: Antibody disulfide reduction by damaged CHO cell supernatant (freeze-thaw), thiol per antibody by Ellman's assay. The class given is biochemical. Conditions: for thiol/antibody ratio: about 2.5 hours, control 5.5; for thiol per antibody: 2.2 hours. How it is done: as §1, §2
The concentration of thiol in the suspension of damaged CHO cells was measured as 4 mM using DTNB ((5,5′-dithiobis(2-nitrobenzoic acid); Ellman's reagent). Humanized anti-folate receptor 1 (FOLR1) IgG1 (1 mg) was immobilized on 0.05 ml of Protein A bead (RepliGen) and then treated with pre-mixed 0.5 ml PBS and 0.1 ml damaged CHO cell supernatant. The concentration of thiol in this mixture was 0.67 mM.
The sample was rotated for about 2.2 hours at ambient temperature, following which the supernatant was removed and the beads were washed with PBS four times (1.5 ml each). The thiol content of the immobilized antibody on the beads was then analyzed by the addition of 0.6 ml of PBS containing 0.5 mM DTNB, rotation for about 10 minutes, centrifugation, and measurement of the absorbance of the supernatant at 412 nm.
Methylene blue was then tested at different concentrations to determine whether it could protect against disulfide bond reduction during the incubation of antibody with damaged CHO cell supernatant. FIG. 1 is a graph showing the results of immobilized 1 mg humanized IgG1 with pre-mixed 0.5 ml PBS and 0.1 ml damaged CHO cell supernatant in the presence of methylene blue, rotation for 2.2 hours at ambient temperature, and a similar thiol analysis of immobilized antibody as above. Unexpectedly, very low concentrations of methylene blue (0.025 and 0.05 mM) protected against the reduction of antibody disulfide bonds.
In a similar experiment, a sample containing 1 mg immobilized antibody was incubated with a mixture of damaged CHO cell supernatant and 0.05 mM methylene blue for 2.2 hours, followed by washing of beads as above, after which the antibody was eluted from Protein A bead using 100 mM acetic acid containing 150 mM NaCl, neutralized to pH 7 by addition of 1.25 M […] solution. Using an aliquot of the neutralized eluted antibody sample, the thiol per antibody was measured as 0.002 thiol per antibody using DTNB, thus indicating the protection against antibody disulfide reduction by methylene blue. […]
A general note: Ellman's reagent forms a yellow product with free thiols.

The nature of data set [3]: Redox potential of antibody solution with media additive over a range of DTT concentrations. It counts as physicochemical. Conditions: 1 mM additive, DTT 0.34 μM to 170 μM, 37° C., 1 h.
A further data set deals with humanized N901 antibody. Nature of the data set: Antibody disulfide reduction by CHO cell lysate (RIPA buffer), thiol/antibody by Ellman's assay. The class given is biochemical. Conditions: for thiol/antibody ratio: 3 hours, lysate thiol 2.1 mM, control 5.74. How it is done: as §1
The effect of 1,2-naphthoquinone-4-sulfonic acid (NQS) on antibody-disulfide reduction was studied by incubating 1,2-naphthoquinone-4-sulfonic acid at several concentrations with antibody and damaged CHO lysate. The damaged CHO cell lysate was generated by the addition of 0.5 ml RIPA buffer (50 mM Tris-HCl, pH 7.4, 1% NP-40, 0.5% sodium deoxycholate, 0.1% sodium dodecylsulfate) to 100 million CHO cells. The thiol concentration in CHO cell lysate was measured by Ellman's assay as 2.1 mM.
Each sample contained pre-mixed 0.5 ml RIPA buffer (50 mM Tris-HCl, pH 7.4, 1% NP-40, 0.5% sodium deoxycholate, 0.1% sodium dodecylsulfate) with 1 mg humanized N901 antibody, with or without 1,2-naphthoquinone-4-sulfonic acid (25 micromolar, or 50 micromolar, or 100 micromolar), which was added to a cell pellet of 100 million CHO cells, and the resuspended cells were incubated at ambient temperature for 30 minutes, following which the cell debris were pelleted by centrifugation (16,000 g, 5 min). The supernatant from each sample was added to 50 microliter immobilized-Protein A beads (RepliGen) and rotated at ambient temperature for 3 hours, after which the supernatant was removed and the beads washed with PBS.
The thiol content of the immobilized antibody was determined by the addition of 0.6 ml of PBS containing 0.5 mM DTNB (Ellman's reagent) to the beads, rotation for about 10 minutes, centrifugation, and absorbance measurement of supernatant at 412 nm.
The effect of anthraquinone-2-sulfonic acid (AQS) on antibody-disulfide reduction was studied during co-incubation of anthraquinone-2-sulfonic acid with antibody and damaged CHO lysate. Each sample contained pre-mixed 1 ml RIPA buffer (50 mM Tris-HCl, pH 7.4, 1% NP-40, 0.5% sodium deoxycholate, 0.1% sodium dodecylsulfate) with 1 mg humanized N901 antibody, with or without 0.2 mM anthraquinone-2-sulfonic acid (AQS), which was added to a cell pellet of 100 million CHO cells, and the resuspended cells were incubated at ambient temperature for 30 minutes, following which the cell debris were pelleted by centrifugation (16,000 g, 5 min). The thiol concentration in CHO cell lysate was 1 mM (Ellman's assay).
The supernatant from each sample was added to 50 microliter immobilized-Protein A beads (RepliGen) and rotated at ambient temperature for 3 hours, after which the supernatant was removed and the beads washed with PBS. The thiol content of the immobilized antibody was determined by the addition of 0.6 ml of PBS containing 0.5 mM DTNB (Ellman's reagent) to the beads, rotation for about 10 minutes, centrifugation, and absorbance measurement of supernatant at 412 nm.
In another experiment, 1 mg huN901 antibody was incubated with CHO lysate, with or without 0.4 mM anthraquinone-2-sulfonic acid for 4 hours. The mixture was then analyzed for thiol/antibody as above.
The thiol concentration in CHO cell lysate was 1 mM (Ellman's assay).
The supernatant from each sample was added to 50 microliter immobilized-Protein A beads (RepliGen) and rotated at ambient temperature for 3 hours, after which the supernatant was removed and the beads washed with PBS. […]

Data set [4] concerns Humanized FOLR1 IgG1 antibody. Nature of the data set: Antibody disulfide reduction by CHO cell lysate (RIPA buffer), thiol per antibody by Ellman's assay. It counts as biochemical. Conditions: 5 mM agent, 100 mM phosphate buffer pH 7, 2 hours.
Experimental: Lysates of CHO cells (˜60 million cells lysed in 0.6 ml RIPA buffer and clarified by centrifugation) were added to each of these mixtures. The pH values of all samples were adjusted to 7. […] The samples were incubated with 200 microliter immobilized-Protein A beads (RepliGen) and rotated at ambient temperature for 3 hours, after which the supernatant was removed and the beads washed with PBS. The thiol content of the immobilized antibody was determined by the addition of 0.2 ml of PBS containing 0.5 mM DTNB (Ellman's reagent) to the beads, rotation for about 10 minutes, centrifugation, and absorbance measurement of the supernatant at 412 nm.
The pH values of all samples were adjusted to 7. The samples were incubated with 200 microliter immobilized-Protein A beads (RepliGen) and rotated at ambient temperature for 3 hours, after which the supernatant was removed and the beads washed with PBS. The thiol content of the immobilized antibody was determined by the addition of 0.2 ml of PBS containing 0.5 mM DTNB (Ellman's reagent) to the beads, rotation for about 10 minutes, centrifugation, and absorbance measurement of the supernatant at 412 nm.
To test the effect of L-cystine bis(t-butyl ester) (CDBE) on protecting antibody disulfide bonds from reduction by CHO lysate, humanized FOLR1 IgG1 antibody (2 mg) was incubated with CHO lysate in RIPA buffer (0.6 ml lysate of 60 million CHO cells in 0.6 ml RIPA buffer, clarified by centrifugation) without or with 0.5 or 1 mM CDBE. The samples were rotated at ambient temperature with 200 microliter immobilized-Protein A beads (RepliGen) for 2 hours, after which the supernatant was removed and the beads washed with PBS. The thiol content of the immobilized antibody was determined by the addition of 0.2 ml of PBS containing 0.5 mM DTNB (Ellman's reagent) to the beads, centrifugation, and absorbance measurement of the supernatant at 412 nm.
The samples were rotated at ambient temperature with 200 microliter immobilized-Protein A beads (RepliGen) for 2 hours, after which the supernatant was removed and the beads washed with PBS. The thiol content of the immobilized antibody was determined by the addition of 0.2 ml of PBS containing 0.5 mM DTNB (Ellman's reagent) to the beads, centrifugation, and absorbance measurement of the supernatant at 412 nm.

For `COC1=C(OC)C(=O)C(C)=CC1=O` [coenzyme Q0, 2,3-dimethoxy-5-methyl-p-benzoquinone], the figures for the thiol per antibody in data set [1] (0.1 mM agent) and in data set [1] (0.2 mM agent) were 0.63 thiol per antibody and 0.34 thiol per antibody, respectively.

Turning to `COC1=C(OC)C(=O)C(C/C=C(\C)CCC=C(C)C)=C(C)C1=O` [coenzyme Q2, 2,3-dimethoxy-5-methyl-6-geranyl-p-benzoquinone], the “protection toward antibody-disulfide reduction” value in data set [1] is on record as “decreased antibody disulfide-reduction”.

With `CCN(CC)C(=S)SSC(=S)N(CC)CC` [disulfiram, tetraethylthiuram disulfide, reference compound], the thiol/antibody ratio in data set [1] (0.1 mM agent) worked out at 0.14; in data set [1] (0.2 mM agent), 0.03.

For `O=S(=O)([O-])[O-].[Zn+2]` [zinc], in the data set on M9346A antibody, the “protection at increased assay stringency” value is listed as “protective of disulfide reduction”.

Take `O=C(O)CCCCC1CCSS1` (racemic) [lipoic acid, 1,2-dithiolane-3-pentanoic acid]: the “viability of CHO cells” value with CHO cells is recorded as 98.1%. In addition, the thiol/antibody ratio was determined as 1.88 in data set [2] (0.5 mM agent, total thiol 0.67 mM) and 1.08 in data set [2] (2 mM agent, total thiol 0.67 mM).

With `N[C@@H](CSSC[C@H](N)C(=O)O)C(=O)O` [cystine], the “modulation of redox potential” value in data set [3] is listed as “step-wise modulation of redox potential”.

For the compound `O=C1C=C(S(=O)(=O)O)c2ccccc2C1=O` [NQS, 1,2-naphthoquinone-4-sulfonic acid], the thiol/antibody ratio in the data set with humanized N901 antibody (0.025 mM agent) was 3.4; in the data set on humanized N901 antibody (0.05 mM agent) it was 2.2; in the data set with humanized N901 antibody (0.1 mM agent) it was 1.25.

Consider `CN(C)c1ccc2nc3ccc(N(C)C)cc3[s+]c2c1` [methylene blue, Methylene blue], for which the thiol per antibody worked out at 0.38 thiol per antibody in data set [2] (0.025 mM agent, total thiol 0.67 mM, control 4.2); 0.002 thiol per antibody in data set [2] (0.05 mM agent, antibody eluted from Protein A bead and neutralized); 0.33 thiol per antibody in data set [2] (0.05 mM agent, total thiol 0.67 mM, control 4.2).

In the data set on humanized N901 antibody (2 mM GSSG alone, 2.5 hours, lysate thiol 1 mM, control 5.63), oxidized glutathione [GSSG] had a thiol/antibody of 0.98 thiol/antibody.

`CCOC(=O)[C@@H](N)CSSC[C@H](N)C(=O)OCC` [CDEE, L-cystine diethyl ester] returned a thiol/antibody with humanized N901 antibody (0.75 mM agent, 4° C. overnight, control 2.29) of 1.02 thiol/antibody.

For `COC1=C(OC)C(=O)C(C/C=C(\C)CC/C=C(\C)CC/C=C(\C)CC/C=C(\C)CC/C=C(\C)CC/C=C(\C)CC/C=C(\C)CC/C=C(\C)CC/C=C(\C)CCC=C(C)C)=C(C)C1=O` [coenzyme Q10, reference compound], the “protection toward antibody-disulfide reduction” value in data set [1] is recorded as “did not show significant protection”.

For `CC(=O)N[C@@H](CSSC[C@H](NC(C)=O)C(=O)O)C(=O)O` [Di-N-acetyl L-cystine], in data set [4], the “decrease in disulfide reduction compared to the control” value is on record as “about 64%”. Further, the thiol per antibody result in data set [4] (control 1.16) is on record as “about 0.42 thiol per antibody”.

For the origin of these results see patent publication US11945862B2, “Compositions and methods for antibody production” (ImmunoGen, Inc., priority 2017, dated 2024).
